Assay results: patent US20110183978A1, “Phenylpyri(mi)dinylazoles” (Bayer CropScience AG, priority 2009, published 2011)
Read-outs that look alike come from different tables or passages of the source.

Legend:
[1] = test system: Septoria tritici; assay: Example R: in vivo test on Septoria tritici (leaf blotch in wheat/protective); details: Zymoseptoria tritici, 504 h, wheat, protective, 1000 ppm active substance, assessed 21 days after inoculation, read-out: % Wirkungsgrad (activity level)
How it was run: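 Protective test: young wheat plants sprayed with compound in N,N-dimethylacetamide/alkylaryl polyglycol ether emulsifier diluted in water, dried, then inoculated with Septoria tritici spore suspension. Disease assessed 21 days after inoculation.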

[2] = test system: Botrytis cinerea; assay: Example P: in vivo test on Botrytis cinerea (gray mould on bean/protective); details: 48 h, bean, protective, 250 ppm active substance, assessed 2 days after inoculation, read-out: % Wirkungsgrad (activity level)
How it was run: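 Protective test: young bean plants sprayed with the active substance preparation (emulsifier-based concentrate diluted in water) at the stated dosage. Once dry, each leaf received 2 agar pieces bearing Botrytis cinerea. Infection blotch size assessed 2 days after inoculation.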

[3] = test system: Botrytis cinerea; assay: Example B: in vivo test on Botrytis cinerea (grey mould on cucumbers); details: cucumber plants sprayed 24 hours before inoculation, scored after 5-7 days, read-out: % Wirkungsgrad
How it was run: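 Cucumber plants (Vert petit de Paris) sprayed at cotyledon stage Z11 with aqueous suspension of compound (acetone/Tween/DMSO), then inoculated with spores from 15-day-old culture in gelatine/fructose nutrient solution. Kept 5-7 days at 15-11° C, then scored against untreated sprayed controls.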

[4] = test system: Pyricularia oryzae; assay: whole plant or invertebrate; assay type: in vivo; details: 120 h, read-out: % Activity level
[5] = test system: Aspergillus parasiticus; assay: microbe, parasite or virus in culture; assay type: cell-based; details: 168 h
[6] = test system: Sphaerotheca fuliginea; assay: Example D: in vivo test on Sphaerotheca fuliginea (powdery mildew on cucumber); details: Podosphaera fuliginea, 288 h, cucumber plants sprayed 24 hours before inoculation, scored after 12 days, read-out: % Wirkungsgrad
How it was run: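 Cucumber plants at cotyledon stage Z10 were sprayed with the compound suspended in acetone/Tween/DMSO diluted with water. After 24 hours they were inoculated with Sphaerotheca fuliginea spores (100,000/ml) and incubated at ca. 20/25° C. and 60/70% RH. Disease was scored after 12 days against untreated sprayed controls.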

[7] = test system: Plasmopara viticola; assay: Example N: in vivo test on Plasmopara viticola (downy mildew, vine/protective); details: 144 h, vine, protective, assessment 6 days after inoculation, read-out: % Wirkungsgrad
How it was run: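 Protective test: young vine plants were sprayed with active substance diluted in water from a solvent/alkylaryl polyglycol ether emulsifier concentrate at the stated dosage, then inoculated with P. viticola. Plants were moistened and kept 1 day in an incubation cabin, and assessed 6 days after inoculation.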

[8] = test system: Fusarium proliferatum; assay: Example I: production of fumonisin FB1 by Fusarium proliferatum (microtitre plates); assay type: cell-based; details: 120 h
[9] = test system: Fusarium graminearum; assay: whole plant or invertebrate; assay type: in vivo; details: in Hordeum vulgare, 120 h, read-out: % Wirkungsgrad (activity level)
[10] = test system: Rhizoctonia solani; assay: Example W: in vivo test on Rhizoctonia solani (sheath blight in rice/protective); details: 96 h, rice, protective, 250 ppm active substance, assessed 4 days after inoculation, read-out: % Activity level
How it was run: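 Young rice plants sprayed protectively with compound in acetone/alkylaryl polyglycol ether emulsion diluted in water at stated dosage. Inoculated with R. solani hyphae one day later; disease assessed 4 days post-inoculation.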

[11] = test system: Pyrenophora teres; assay: Example E: in vivo test on Pyrenophora teres (barley net blotch disease); details: Pyrenophora teres, 288 h, barley plants sprayed 24 hours before inoculation, scored after 12 days, read-out: % Wirkungsgrad
Method: In Vivo Test on Pyrenophora Teres (Barley Net Blotch Disease) An aqueous suspension of the active substance was prepared by homogenization of a mixture of acetone/Tween/dimethyl sulphoxide and subsequent dilution with water to the desired concentration. Barley plants (variety: Plaisant) are sown in cultivation dishes on a peat-pozzolanic earth substrate (50/50) at 12° C. and sprayed at the first-leaf stage (10 cm size) with the aqueous suspension described above. As a control, plants are sprayed with an aqueous solution with no active substance. After 24 hours the plants are inoculated by spraying with an aqueous suspension of Pyrenophora teres spores (12,000 spores per ml). The spores are derived from a 12 day-old culture. […] After 12 days they are scored in comparison with the control plants.

[12] = 50 μM, 7 days at 20° C., read-out: Inhibition der Aflatoxin produktion bei 50 μM
[13] = read-out: % Inhibition des Pilzwachstums bei 50 μM
[14] = Fusarium proliferatum growth, OD 620, 5 days, read-out: % Inhibition des Pilzwachstums bei 50 μM
[15] = Fusarium proliferatum, 5 days at 20° C., HPLC-MS/MS, read-out: % Inhibition der FB1 produktion bei 50 μM

## CC(C)n1cc(-c2ccnc(NC(=O)C3CC3)c2)c(-c2ccc(F)cc2)n1 [Compound 86]
[1]
  pest or weed control at 1000 ppm: 100%
[2]
  pest or weed control at 250 ppm: 100%
[3]
  pest or weed control at 500 ppm: 100%
[4]
  pest or weed control at 250 ppm: 93%
[5]; [12]
  inhibition at 50 µM: 100%
[5]; [13]
  inhibition at 50 µM: 97%
[6]
  pest or weed control at 500 ppm: 100%
[7]
  pest or weed control at 100 ppm: 84%
[8]; [14]
  inhibition at 50 µM: 96%
[8]; [15]
  inhibition at 50 µM: 100%
[9]
  pest or weed control at 1000 ppm: 100%
[10]
  pest or weed control at 250 ppm: 100%
[11]
  pest or weed control at 500 ppm: 81%

## CC(C)Cn1cc(-c2ccncc2)c(-c2ccc(F)cc2)n1 [Compound 1]
[1]
  pest or weed control at 1000 ppm: 100%
[2]
  pest or weed control at 250 ppm: 99%
[3]
  pest or weed control at 500 ppm: 100%
[4]
  pest or weed control at 250 ppm: 80%
[6]
  pest or weed control at 500 ppm: 100%
[7]
  pest or weed control at 100 ppm: 100%
[9]
  pest or weed control at 1000 ppm: 100%
[10]
  pest or weed control at 250 ppm: 100%
[11]
  pest or weed control at 500 ppm: 96%

## CC(C)C(=O)Nc1cc(-c2cn(C(C)C)nc2-c2ccc(F)cc2)ccn1 [Compound 84]
[1]
  pest or weed control at 1000 ppm: 100%
[2]
  pest or weed control at 250 ppm: 99%
[3]
  pest or weed control at 500 ppm: 100%
[4]
  pest or weed control at 250 ppm: 85%
[5]; [12]
  inhibition at 50 µM: 100%
[5]; [13]
  inhibition at 50 µM: 98%
[6]
  pest or weed control at 500 ppm: 100%
[7]
  pest or weed control at 100 ppm: 98%
[8]; [14]
  inhibition at 50 µM: 88%
[8]; [15]
  inhibition at 50 µM: 100%
[9]
  pest or weed control at 1000 ppm: 100%
[10]
  pest or weed control at 250 ppm: 100%

## CCC(=O)Nc1cc(-c2cn(C(C)C)nc2-c2ccc(F)cc2)ccn1 [Compound 85]
[1]
  pest or weed control at 1000 ppm: 100%
[2]
  pest or weed control at 250 ppm: 100%
[3]
  pest or weed control at 500 ppm: 100%
[4]
  pest or weed control at 250 ppm: 80%
[5]; [12]
  inhibition at 50 µM: 100%
[5]; [13]
  inhibition at 50 µM: 98%
[6]
  pest or weed control at 500 ppm: 100%
[7]
  pest or weed control at 100 ppm: 94%
[8]; [14]
  inhibition at 50 µM: 95%
[8]; [15]
  inhibition at 50 µM: 100%
[9]
  pest or weed control at 1000 ppm: 100%
[10]
  pest or weed control at 250 ppm: 97%
[11]
  pest or weed control at 500 ppm: 75%
